PMC7549214 (Malaria Journal, 2020)
Like-named read-outs stand apart in the source and are kept apart here.

Tests used:
[1] = Plasma protein binding; assay type: in vitro ADME; details: rat, read-out: Plasma protein binding (% bound)
[2] = test system: cytochrome P450 (CYP) isoforms (any of those tested); assay: CYP inhibition, isoforms tested (summary); assay type: in vitro ADME; details: any of the CYP isoforms tested
[3] = in vitro; assay type: in vitro ADME; details: rat, plasma
[4] = molecular target: CYP2C9 (Homo sapiens, UniProt P11712); assay: CYP inhibition; assay type: in vitro ADME; details: read-out: CYP inhibition IC50, CYP 2C9
[5] = test system: P. falciparum Pf3D7^0087/N9; assay: Therapeutic efficacy in SCID mouse model of human falciparum malaria; assay type: in vivo, Plasmodium falciparum in NODscidIL2Rγ^null mice; details: for Parasitaemia after 4 days of administration: intraperitoneally, vehicle control 8.43%; for Parasitaemia: oral, vehicle-treated group 7.69%, n = 2
Method: For the dose–response study, 50 mg of the compound was used in quintuplicate. Chloroquine (Sigma-Aldrich C6628) was used as the standard drug. The volume of 10 mL/kg was used for administration. Briefly, at day 0, in vitro cultures with approximately 2–5% parasitaemia were taken and diluted in culture medium to 2 × 10^7 parasitized erythrocytes per 0.1 ml. This suspension was injected iv into experimental groups and a control group of n = 2 mice. From day 3 to 6 days post-infection, the experimental groups were treated with a single daily dose by the oral (po) route. Other routes, such as intramuscular and subcutaneous, were also tested using the same protocol. The drug concentration was adjusted in a way to administer 10 ml/kg. […] At 7th day post-infection, 2 μl tail blood was taken. The haematocrit was determined by FACS and parasitaemia by microscopy on > 10,000 red blood cells.
The difference of the mean infection rate of the control group (= 100%) to the test group was calculated and expressed as per cent reduction. […] The results were expressed as a reduction of parasitaemia at day 7 in % as compared to the untreated control group. Values are expressed as mean ± SD.

[6] = test system: Plasmodium falciparum 3D7; assay: Plasmodium falciparum asexual blood-stage (ABS) assay; assay type: cell-based; details: Plasmodium falciparum, 3D7
Method: Plasmodium falciparum 3D7 strain was used for the P. falciparum asexual blood-stage (ABS) assay, for which the cells were resuscitated from the stabilate and maintained at 5% haematocrit. Red blood cells obtained from the hospital were used to maintain the culture at 1% parasitaemia while screening.
Plasmodium falciparum 3D7 cells were used as a target strain for the assay. Mefloquine (Sigma-Aldrich) was used as a standard inhibitor. At day 1, […] of 10 mM mefloquine was added to columns 12 and 24 of the sterile 384-well black, clear-bottom, cell culture assay plates followed by compound curves which were added using Echo. The P. falciparum 3D7 cells were counted and 20 ml of culture was prepared at 5% haematocrit, 0.3% parasitaemia (as one batch, i.e., 12 plates, prepare 260 ml, to allow for WellMate prime volume) for each plate. From this, 50 µl of culture was added to all wells on all plates using WellMate with small bore tubing on full (S-1) speed. The plates were placed on the bottom shelf of the incubator, with a maximum stack height of 4 plates, preferring the front of the shelf and were incubated for 72 h at 37 °C in an atmosphere of special gas mix (1% O2, 3% CO2, balance N2).
. Ten μl of the prepared buffer was added to each well on each of the assay plates and incubated overnight in the dark at room temperature. The plates were read on Victor plate reader using ‘384sybrgreen’ protocol (excitation 485 nm, emission 528 nm) after which the plate contents were aspirated into 5% Virkon, and disposed of after autoclaving. Percentage inhibition for each test compound was calculated using the following equation: %Inhibition=100-TEST COMPOUND-BLANK/NO INHIBITION-BLANK∗100)
EC50 values for standard inhibitors were determined using non-linear regression curve-fitting within Activity Base data analysis template.

[7] = molecular target: CYP1A2 (Homo sapiens, UniProt P05177); assay: CYP inhibition; assay type: in vitro ADME
[8] = in vitro; assay type: in vitro ADME; details: human, plasma
[9] = Microsomal stability; assay type: in vitro ADME, human; details: HLM, Test Conc. 10 µM
[10] = test system: HepG2; assay: Cytotoxicity; assay type: cell-based
[11] = Single dose pharmacokinetics in SCID mice; assay type: in vivo; details: female, C.B-17/IcrHsd-Prkdc^scidLyst^bg (SCID), mouse, plasma; infected SCID mice, oral, 50 mg/Kg
Method: Female […] mice (n = 3) aged 7-8 weeks and weighing around 20 to 22 g were used for experimentation after a minimum 7 days of acclimation. Male BALB/c mice (n = 3) aged 8-10 weeks and weighing around 20 to 22 g were also used for experimentation after a minimum 7 days of acclimation. […] Feed was offered 2 h post-dose. Under mild isofluorane […], blood samples were collected by retro-orbital route into labelled centrifuge tubes containing K2EDTA anticoagulant at a concentration of 2 mg/mL of blood during the next 24 h post-dose. Collected blood samples were centrifuged at 4000 rpm for 10 min, and harvested plasma samples were stored at - 80 °C until analysis.

[12] = Plasma protein binding; assay type: in vitro ADME; details: monkey, read-out: Plasma protein binding (% bound)
[13] = test system: Dd2; assay: microbe, parasite or virus in culture; assay type: cell-based; details: Plasmodium falciparum
[14] = test system: Plasmodium falciparum strain 3D7; assay: In vitro killing profile; assay type: cell-based; details: 10 × IC50
Method: Briefly, the assay used limiting dilution technique to quantify the number of parasites viable after drug treatment. […] Parasites were treated for […]. The drugs used were renewed daily over the entire treatment period. Samples of parasites were taken from the treated culture every 24 h (0, for control of the initial number of parasites, 24, 48, 72, 96, 120 h’ time points). Following this, the procedure was carried out to wash out the drugs, and drug-free parasites were cultured in 96-well plates by adding fresh erythrocytes and new media (RPMI 1640 medium). Three-fold serial dilution was used with the abovementioned samples after removing the drug to quantify the number of viable parasites after treatment. Parasites were cultured in microtitre plates to allow all wells with viable parasites to render detectable parasitaemia. Four independent serial dilutions were carried out with each sample to correct experimental variations. Samples were examined after 21 days of culturing. Additional sampling was done after 28 days to confirm the growth/no growth.

[15] = test system: Dd2 DDD107498 (PfeEF2 Y186N); assay: microbe, parasite or virus in culture; assay type: cell-based; details: Plasmodium falciparum
[16] = molecular target: human HDAC2 (Homo sapiens, UniProt Q92769); assay: Isoform selectivity, recombinant HDAC isoforms; assay type: biochemical; details: single experiment assays
Method: Isoform selectivity was tested using recombinant HDAC isoforms (Biomol, USA).

Sequence of human HDAC2 (Q92769 whole entry, canonical isoform): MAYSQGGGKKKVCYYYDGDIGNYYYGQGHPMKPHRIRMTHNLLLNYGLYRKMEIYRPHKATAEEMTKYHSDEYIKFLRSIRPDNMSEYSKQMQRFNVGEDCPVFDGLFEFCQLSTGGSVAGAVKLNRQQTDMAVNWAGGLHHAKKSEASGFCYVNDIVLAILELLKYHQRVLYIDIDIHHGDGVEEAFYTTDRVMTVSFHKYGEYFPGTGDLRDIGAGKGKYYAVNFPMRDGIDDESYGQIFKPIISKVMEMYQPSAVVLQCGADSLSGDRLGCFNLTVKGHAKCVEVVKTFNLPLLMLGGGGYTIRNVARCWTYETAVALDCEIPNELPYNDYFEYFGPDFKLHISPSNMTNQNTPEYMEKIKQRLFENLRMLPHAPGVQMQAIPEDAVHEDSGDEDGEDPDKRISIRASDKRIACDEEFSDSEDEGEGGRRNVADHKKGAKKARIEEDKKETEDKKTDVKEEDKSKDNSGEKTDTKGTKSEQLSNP
Sequence of CYP1A2 (P05177 whole entry, species assumed): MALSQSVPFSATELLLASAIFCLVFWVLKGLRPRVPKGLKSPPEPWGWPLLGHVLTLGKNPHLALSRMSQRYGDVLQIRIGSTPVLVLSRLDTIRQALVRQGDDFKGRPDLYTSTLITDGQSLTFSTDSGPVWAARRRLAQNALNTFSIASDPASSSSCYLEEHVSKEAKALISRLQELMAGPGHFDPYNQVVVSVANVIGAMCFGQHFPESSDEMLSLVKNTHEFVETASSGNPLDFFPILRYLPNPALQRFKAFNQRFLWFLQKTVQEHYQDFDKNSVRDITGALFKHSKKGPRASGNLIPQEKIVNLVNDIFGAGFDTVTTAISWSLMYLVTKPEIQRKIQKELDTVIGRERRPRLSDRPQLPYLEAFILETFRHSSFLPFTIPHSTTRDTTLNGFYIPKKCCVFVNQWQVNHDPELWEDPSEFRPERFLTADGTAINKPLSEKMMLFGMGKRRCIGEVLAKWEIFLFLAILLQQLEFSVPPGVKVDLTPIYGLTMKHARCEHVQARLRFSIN
Sequence of CYP2C9 (P11712 whole entry, species assumed): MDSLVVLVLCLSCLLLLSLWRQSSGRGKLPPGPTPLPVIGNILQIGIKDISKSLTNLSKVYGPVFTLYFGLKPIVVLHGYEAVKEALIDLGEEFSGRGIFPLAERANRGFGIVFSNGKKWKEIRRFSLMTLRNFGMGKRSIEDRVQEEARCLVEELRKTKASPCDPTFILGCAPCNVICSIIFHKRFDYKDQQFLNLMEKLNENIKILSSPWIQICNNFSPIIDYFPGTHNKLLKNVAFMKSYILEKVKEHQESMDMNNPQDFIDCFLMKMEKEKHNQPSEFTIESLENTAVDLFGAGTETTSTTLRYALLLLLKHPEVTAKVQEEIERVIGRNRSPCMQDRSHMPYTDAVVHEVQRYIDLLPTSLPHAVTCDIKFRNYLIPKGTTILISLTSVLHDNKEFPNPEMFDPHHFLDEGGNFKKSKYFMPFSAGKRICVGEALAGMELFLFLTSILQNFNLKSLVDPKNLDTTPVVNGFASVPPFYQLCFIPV

O=C(NO)c1ccc(Cn2cc(-c3ccc(CN4CCCC4)cc3)nn2)cc1 [FNDR-20123]
fraction unbound [1]: 0.581
IC50 [2]: > 25000 nM
remaining at 4 h [3]: 88.9%
IC50 [4]: > 60000 nM
Reduction of parasitaemia ([5]; dosed orally and subcutaneously): reduce parasitaemia significantly
Parasitaemia after 4 days of administration ([5]; 50 mg/kg bw): 0.12%
Parasitaemia after 4 days of administration ([5]; 100 mg/kg bw): 0.19%
Parasitaemia ([5]; 10 mg/kg bw for 4 days): 6.5%
Parasitaemia ([5]; 50 mg/kg bw for 4 days): 2.57%
IC50 ([6]; read-out: Anti-malarial IC50): 40 nM
IC50 ([6]; read-out: Anti-malarial activity Asexual Blood Stage IC50): 42 nM
IC50 [7]: > 60000 nM
remaining at 4 h [8]: 98.9%
Microsomal stability (% remaining at 120 min) [9]: 85.31%
remaining at 2 h, 10 µM ([9]; human, liver microsomes, read-out: Microsomal stability (% remaining at 120 min)): > 75%
Cytotoxicity to HepG-2 cell line [10]: negligible cytotoxicity
Cytotoxicity HepG2 (% @ 100 µM) ([10]; 100 µM): 12.6%
AUC(0-t) [11]: 1340 ng·h/mL
Cmax [11]: 460 ng/mL
Tmax [11]: 1 h
fraction unbound [12]: > 0.8
IC50 [13]: 17.5 nM
In vitro killing profile compared with standard drugs [14]: better than atovaquone and comparable to pyrimethamine
IC50 [15]: 20.9 nM
IC50 [16]: 29 nM
